Source: ChEMBL document CHEMBL2396528, “Synthesis of new conjugated coumarin-benzimidazole hybrids and their anticancer activity” (2013)

Each compound was assayed on LOX IMVI (assay: Cytotoxicity against human LOXIMVI cells assessed as growth inhibition at 10 uM after 48 hrs by SRB assay relative to control). Conditions: read-out: GI.
Type: functional

Going from `O=c1oc2cc(Br)ccc2cc1-c1nc2ccccc2[nH]1` to `O=c1oc2cc(NCCO)ccc2cc1-c1nc2ccccc2[nH]1`, the inhibition of growth at 10 µM rises from under 20% to 54.3%.

Compared with `O=c1[nH]cc(F)c(=O)[nH]1` [FLUOROURACIL], `CN1CCN(c2ccc3cc(-c4nc5ccccc5[nH]4)c(=O)oc3c2)CC1` is lower in inhibition of growth at 10 µM: 30.4% for the first, under 20% for the second.

Each compound was assayed on BT-549 (assay: Cytotoxicity against human BT549 cells assessed as growth inhibition at 10 uM after 48 hrs by SRB assay relative to control). Conditions: BT-549, 48 h, read-out: GI.
Type: functional

Going from `O=c1oc2cc(Br)ccc2cc1-c1nc2ccccc2[nH]1` to `O=c1oc2cc(NCCO)ccc2cc1-c1nc2ccccc2[nH]1`, the inhibition of growth at 10 µM rises from under 20% to 33.1%.

First: O=c1[nH]cc(F)c(=O)[nH]1 [FLUOROURACIL]
Second: CN1CCN(c2ccc3cc(-c4nc5ccccc5[nH]4)c(=O)oc3c2)CC1
The inhibition of growth at 10 µM of the first is higher: 37.8% for the first, under 20% for the second.

What follows are compounds tested on NCI-H522 (assay: Cytotoxicity against human NCI-H522 cells assessed as growth inhibition at 10 uM after 48 hrs by SRB assay relative to control). Conditions: NCI-H522, 48 h, read-out: GI.
Type: functional

Going from `O=c1oc2cc(Br)ccc2cc1-c1nc2ccccc2[nH]1` to `O=c1oc2cc(NCCO)ccc2cc1-c1nc2ccccc2[nH]1`, the inhibition of growth at 10 µM rises from 20.6% to 23.7%.

Compared with `O=c1[nH]cc(F)c(=O)[nH]1` [FLUOROURACIL], `CN1CCN(c2ccc3cc(-c4nc5ccccc5[nH]4)c(=O)oc3c2)CC1` is lower in inhibition of growth at 10 µM: 58% for the first, under 20% for the second.

What follows are compounds tested on T47D (assay: Cytotoxicity against human T47D cells assessed as growth inhibition at 10 uM after 48 hrs by SRB assay relative to control). Conditions: read-out: GI.
Type: functional

Compared with `O=c1oc2cc(Br)ccc2cc1-c1nc2ccccc2[nH]1`, `O=c1oc2cc(NCCO)ccc2cc1-c1nc2ccccc2[nH]1` is higher in inhibition of growth at 10 µM: 28.4% for the first, 70.7% for the second.

First: O=c1[nH]cc(F)c(=O)[nH]1 [FLUOROURACIL]
Second: CN1CCN(c2ccc3cc(-c4nc5ccccc5[nH]4)c(=O)oc3c2)CC1
The inhibition of growth at 10 µM of the first is higher: 56.7% for the first, 23.1% for the second.

The compounds below were run on OVCAR-5 (assay: Cytotoxicity against human OVCAR5 cells assessed as growth inhibition at 10 uM after 48 hrs by SRB assay relative to control). Conditions: OVCAR-5, 48 h, read-out: GI.
Type: functional

`O=c1oc2cc(Br)ccc2cc1-c1nc2ccccc2[nH]1` and `O=c1oc2cc(NCCO)ccc2cc1-c1nc2ccccc2[nH]1` cannot be ordered by inhibition of growth at 10 µM: under 20% for the first, under 20% for the second.

Compared with `O=c1[nH]cc(F)c(=O)[nH]1` [FLUOROURACIL], `CN1CCN(c2ccc3cc(-c4nc5ccccc5[nH]4)c(=O)oc3c2)CC1` is lower in inhibition of growth at 10 µM: 44.3% for the first, under 20% for the second.

Each compound was assayed on NCI-H322M (assay: Cytotoxicity against human NCI-H322M cells assessed as growth inhibition at 10 uM after 48 hrs by SRB assay relative to control). Conditions: read-out: GI.
Type: functional

Compared with `O=c1oc2cc(Br)ccc2cc1-c1nc2ccccc2[nH]1`, `O=c1oc2cc(NCCO)ccc2cc1-c1nc2ccccc2[nH]1` is higher in inhibition of growth at 10 µM: under 20% for the first, 29.7% for the second.

Going from `O=c1[nH]cc(F)c(=O)[nH]1` [FLUOROURACIL] to `CN1CCN(c2ccc3cc(-c4nc5ccccc5[nH]4)c(=O)oc3c2)CC1`, the inhibition of growth at 10 µM falls from 59.5% to under 20%.

Each compound was assayed on CAKI-1 (assay: Cytotoxicity against human Caki1 cells assessed as growth inhibition at 10 uM after 48 hrs by SRB assay relative to control). Conditions: CAKI-1, 48 h, read-out: GI.
Type: functional

Going from `O=c1oc2cc(Br)ccc2cc1-c1nc2ccccc2[nH]1` to `O=c1oc2cc(NCCO)ccc2cc1-c1nc2ccccc2[nH]1`, the inhibition of growth at 10 µM rises from under 20% to 22.4%.

First: O=c1[nH]cc(F)c(=O)[nH]1 [FLUOROURACIL]
Second: CN1CCN(c2ccc3cc(-c4nc5ccccc5[nH]4)c(=O)oc3c2)CC1
The inhibition of growth at 10 µM of the first is higher: 39.4% for the first, under 20% for the second.

Each compound was assayed on OVCAR-3 (assay: Cytotoxicity against human OVCAR3 cells assessed as growth inhibition at 10 uM after 48 hrs by SRB assay relative to control). Conditions: OVCAR-3, 48 h, read-out: GI.
Type: functional

Compared with `O=c1oc2cc(Br)ccc2cc1-c1nc2ccccc2[nH]1`, `O=c1oc2cc(NCCO)ccc2cc1-c1nc2ccccc2[nH]1` is higher in inhibition of growth at 10 µM: under 20% for the first, 32.8% for the second.

Compared with `O=c1[nH]cc(F)c(=O)[nH]1` [FLUOROURACIL], `CN1CCN(c2ccc3cc(-c4nc5ccccc5[nH]4)c(=O)oc3c2)CC1` is lower in inhibition of growth at 10 µM: 47.4% for the first, under 20% for the second.

What follows are compounds tested on KM12 (assay: Cytotoxicity against human KM12 cells assessed as growth inhibition at 10 uM after 48 hrs by SRB assay relative to control). Conditions: KM12, 48 h, read-out: GI.
Type: functional

`O=c1oc2cc(Br)ccc2cc1-c1nc2ccccc2[nH]1` and `O=c1oc2cc(NCCO)ccc2cc1-c1nc2ccccc2[nH]1` cannot be ordered by inhibition of growth at 10 µM: under 20% for the first, under 20% for the second.

Compared with `O=c1[nH]cc(F)c(=O)[nH]1` [FLUOROURACIL], `CN1CCN(c2ccc3cc(-c4nc5ccccc5[nH]4)c(=O)oc3c2)CC1` is lower in inhibition of growth at 10 µM: 40.7% for the first, under 20% for the second.

What follows are compounds tested on UACC-257 (assay: Cytotoxicity against human UACC257 cells assessed as growth inhibition at 10 uM after 48 hrs by SRB assay relative to control). Conditions: UACC-257, 48 h, read-out: GI.
Type: functional

Going from `O=c1oc2cc(Br)ccc2cc1-c1nc2ccccc2[nH]1` to `O=c1oc2cc(NCCO)ccc2cc1-c1nc2ccccc2[nH]1`, the inhibition of growth at 10 µM rises from under 20% to 28%.

First: O=c1[nH]cc(F)c(=O)[nH]1 [FLUOROURACIL]
Second: CN1CCN(c2ccc3cc(-c4nc5ccccc5[nH]4)c(=O)oc3c2)CC1
The inhibition of growth at 10 µM of the first is higher: 33.7% for the first, 25.3% for the second.

What follows are compounds tested on SK-MEL-28 (assay: Cytotoxicity against human SK-MEL-28 cells assessed as growth inhibition at 10 uM after 48 hrs by SRB assay relative to control). Conditions: SK-MEL-28, 48 h, read-out: GI.
Type: functional

`O=c1oc2cc(Br)ccc2cc1-c1nc2ccccc2[nH]1` and `O=c1oc2cc(NCCO)ccc2cc1-c1nc2ccccc2[nH]1` cannot be ordered by inhibition of growth at 10 µM: under 20% for the first, under 20% for the second.

`O=c1[nH]cc(F)c(=O)[nH]1` [FLUOROURACIL] and `CN1CCN(c2ccc3cc(-c4nc5ccccc5[nH]4)c(=O)oc3c2)CC1` cannot be ordered by inhibition of growth at 10 µM: 19.5% for the first, under 20% for the second.

Each compound was assayed on SF-295 (assay: Cytotoxicity against human SF295 cells assessed as growth inhibition at 10 uM after 48 hrs by SRB assay relative to control). Conditions: SF-295, 48 h, read-out: GI.
Type: functional

Going from `O=c1oc2cc(Br)ccc2cc1-c1nc2ccccc2[nH]1` to `O=c1oc2cc(NCCO)ccc2cc1-c1nc2ccccc2[nH]1`, the inhibition of growth at 10 µM rises from under 20% to 24.5%.

Compared with `O=c1[nH]cc(F)c(=O)[nH]1` [FLUOROURACIL], `CN1CCN(c2ccc3cc(-c4nc5ccccc5[nH]4)c(=O)oc3c2)CC1` is lower in inhibition of growth at 10 µM: 69% for the first, under 20% for the second.

The compounds below were run on A549 (assay: Cytotoxicity against human A549 cells assessed as growth inhibition at 10 uM after 48 hrs by SRB assay relative to control). Conditions: A549, 48 h, read-out: GI.
Type: functional

`O=c1oc2cc(Br)ccc2cc1-c1nc2ccccc2[nH]1` and `O=c1oc2cc(NCCO)ccc2cc1-c1nc2ccccc2[nH]1` cannot be ordered by inhibition of growth at 10 µM: under 20% for the first, under 20% for the second.

First: O=c1[nH]cc(F)c(=O)[nH]1 [FLUOROURACIL]
Second: CN1CCN(c2ccc3cc(-c4nc5ccccc5[nH]4)c(=O)oc3c2)CC1
The inhibition of growth at 10 µM of the first is higher: 34.2% for the first, under 20% for the second.

Each compound was assayed on SK-MEL-2 (assay: Cytotoxicity against human SK-MEL-2 cells assessed as growth inhibition at 10 uM after 48 hrs by SRB assay relative to control). Conditions: SK-MEL-2, 48 h, read-out: GI.
Type: functional

`O=c1oc2cc(Br)ccc2cc1-c1nc2ccccc2[nH]1` and `O=c1oc2cc(NCCO)ccc2cc1-c1nc2ccccc2[nH]1` cannot be ordered by inhibition of growth at 10 µM: under 20% for the first, under 20% for the second.

Compared with `O=c1[nH]cc(F)c(=O)[nH]1` [FLUOROURACIL], `CN1CCN(c2ccc3cc(-c4nc5ccccc5[nH]4)c(=O)oc3c2)CC1` is lower in inhibition of growth at 10 µM: 95.5% for the first, under 20% for the second.

What follows are compounds tested on SR (assay: Cytotoxicity against human SR cells assessed as growth inhibition at 10 uM after 48 hrs by SRB assay relative to control). Conditions: read-out: GI.
Type: functional

First: O=c1oc2cc(Br)ccc2cc1-c1nc2ccccc2[nH]1
Second: O=c1oc2cc(NCCO)ccc2cc1-c1nc2ccccc2[nH]1
The inhibition of growth at 10 µM of the first is higher: 21.5% for the first, under 20% for the second.

Compared with `O=c1[nH]cc(F)c(=O)[nH]1` [FLUOROURACIL], `CN1CCN(c2ccc3cc(-c4nc5ccccc5[nH]4)c(=O)oc3c2)CC1` is lower in inhibition of growth at 10 µM: 24.8% for the first, under 20% for the second.

These compounds were tested on SK-MEL-5 (assay: Cytotoxicity against human SK-MEL-5 cells assessed as growth inhibition at 10 uM after 48 hrs by SRB assay relative to control). Conditions: SK-MEL-5, 48 h, read-out: GI.
Type: functional

Going from `O=c1oc2cc(Br)ccc2cc1-c1nc2ccccc2[nH]1` to `O=c1oc2cc(NCCO)ccc2cc1-c1nc2ccccc2[nH]1`, the inhibition of growth at 10 µM rises from under 20% to 35.8%.

`CN1CCN(c2ccc3cc(-c4nc5ccccc5[nH]4)c(=O)oc3c2)CC1` gave an inhibition of growth at 10 µM of under 20%.
